Results from patent US20050170431A1, “PYK2 crystal structure and uses” (Plexxikon, Inc., priority 2003, published 2005).

Target: T1, Pyk2 kinase domain residues 419 to 691 (Homo sapiens, UniProt Q14289)
T1 construct: PYK2 kinase domain I420-M691 (not including first 21 aa in); made in house; host or cells: E. coli BL21 (DE3) pLysS
Experiment: PYK2 kinase activity assay in AlphaScreen, inhibition by ATP analogs
Format: biochemical
Details: Pyk2 at 8 ng/well and ATP at 10 uM; read-out: affinity with Pyk2
Method: As an exemplary kinase assay, the kinase activity of PYK2 was measured in AlphaScreening (Packard BioScience). The kinase buffer (HMNB) contains HEPES 50 mM at pH7.2, Mg/Mn 5 mM each, NP-40 0.1%, and BSA at final 50 ug/ml. AlphaScreening is conducted as described by the manufacturer. In brief, the kinase reaction is performed in 384-well plate in 25 ul volume. The substrate is biotin-(E4Y)3 at final concentration of 1 nM. The final concentration of ATP is 10 uM. For compound testing the final DMSO concentration is 1%. The reaction is incubated in 31° C. for 1 hour.
The Pyk2 kinase domain residues 419 to 691 is an active kinase in AlphaScreen. […] Inhibition by ATP analogs was tested with Pyk2 at 8 ng/well and ATP at 10 uM. […] Adenosine and AMP-PCP have little effect on PYK2 in the concentration tested.

T1 sequence (Q14289 420-691): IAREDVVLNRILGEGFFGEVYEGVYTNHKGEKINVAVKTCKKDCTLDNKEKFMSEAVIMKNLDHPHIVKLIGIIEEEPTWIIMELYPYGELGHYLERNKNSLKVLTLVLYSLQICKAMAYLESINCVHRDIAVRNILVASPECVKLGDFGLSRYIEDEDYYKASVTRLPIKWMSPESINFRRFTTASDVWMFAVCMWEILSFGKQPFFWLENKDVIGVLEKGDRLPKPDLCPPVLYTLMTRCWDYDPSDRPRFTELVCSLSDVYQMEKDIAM

SMILES | IC50
Nc1ncnc2c1ncn2[C@@H]1O[C@H](COP(=O)(O)OP(=O)(O)OP(O)(O)=S)[C@@H](O)[C@H]1O [ATP-g-S] | 14 µM
Nc1ncnc2c1ncn2[C@@H]1O[C@H](COP(=O)(O)OP(=O)(O)O)[C@@H](O)[C@H]1O [ADT, ADP] | 14 µM
